Values of other authors as cited in patent publication US20220265733A1, “COMPOSITIONS COMPRISING BACTERIAL STRAINS” (4D Pharma Research Limited, priority 2019, published 2022).

Tests used:
[1] = test system: class I HDAC; conditions: reference [70]
[2] = test system: DSS-colitis murine model; conditions: reference [70]

## CCCC(CCC)C(=O)O [valproic acid]
[1]
  HDAC inhibition: associated with class I HDAC inhibition
[2]
  colitis: amelioration
